According to the NIST ThermoML archive (doi:10.1021/acs.jced.8b00589):

Assay: xn = mol fraction of the nth substance listed
Conditions: for surface tension liquid-gas: Ring tensiometer; for viscosity / speed of sound / mass density: 100 kPa, Liquid; for viscosity: Capillary tube (Ostwald / Ubbelohde) method; for speed of sound: Frequency=2 MHz, Linear variable-path acoustic interferometer; for mass density: Vibrating tube method

CCC(C)(C)OC [2-methoxy-2-methylbutane] + Cc1cccc(C)c1
Conditions	mass density [kg/m3]	speed of sound [m/s]	surface tension liquid-gas [mN/m]	viscosity [mPa·s]
298.15 K, x1 = 0.1462	844.1	1299	26.87	0.561
298.15 K, x1 = 0.2667	833.4	1269.4	25.84	0.541
298.15 K, x1 = 0.4165	821.1	1235	24.69	0.519
298.15 K, x1 = 0.4774	816.2	1218.9	24.24	0.51
298.15 K, x1 = 0.5331	811.4	1205.2	23.82	0.502
298.15 K, x1 = 0.6068	805.3	1189.2	23.22	0.491
298.15 K, x1 = 0.7371	794.6	1165.8	22.07	0.47
298.15 K, x1 = 0.8642	782.7	1138	20.93	0.447
298.15 K, x1 = 1	765.6	1118	19.72	0.424
308.15 K, x1 = 0.1462	833.6	1254.4	25.64	0.501
308.15 K, x1 = 0.2667	822.5	1220.7	24.62	0.485
308.15 K, x1 = 0.4165	810.2	1182.3	23.47	0.468
308.15 K, x1 = 0.4774	805.1	1167	23.02	0.461
308.15 K, x1 = 0.5331	800.3	1155.1	22.61	0.454
308.15 K, x1 = 0.6068	794.4	1140.5	22.06	0.445
308.15 K, x1 = 0.7371	783.3	1118.1	20.94	0.428
308.15 K, x1 = 0.8642	771.8	1092.8	19.83	0.409
308.15 K, x1 = 1	756.3	1075.6	18.66	0.39
318.15 K, x1 = 0.1462	823.8	1209.3	24.36	0.46
318.15 K, x1 = 0.2667	813.1	1174.2	23.37	0.445
318.15 K, x1 = 0.4165	800.2	1134.5	22.25	0.428
318.15 K, x1 = 0.4774	794.8	1118.7	21.81	0.421
318.15 K, x1 = 0.5331	790.4	1105.4	21.41	0.415
318.15 K, x1 = 0.6068	784.1	1090.6	20.9	0.407
318.15 K, x1 = 0.7371	772.8	1067.2	19.83	0.391
318.15 K, x1 = 0.8642	761.3	1045.9	18.77	0.374
318.15 K, x1 = 1	746.3	1030.2	17.65	0.357
323.15 K, x1 = 0.1462	819.2	1186.3	23.73	0.424
323.15 K, x1 = 0.2667	808	1150.5	22.75	0.412
323.15 K, x1 = 0.4165	795.3	1107.7	21.65	0.399
323.15 K, x1 = 0.4774	789.8	1090.3	21.21	0.393
323.15 K, x1 = 0.5331	785.1	1076.2	20.82	0.389
323.15 K, x1 = 0.6068	778.8	1061.4	20.32	0.382
323.15 K, x1 = 0.7371	767.7	1037.8	19.27	0.369
323.15 K, x1 = 0.8642	755.8	1017	18.23	0.354
323.15 K, x1 = 1	741.4	1003	17.13	0.34
328.15 K, x1 = 0.1462	814.4	1160.6	23.1	0.414
328.15 K, x1 = 0.2667	803.3	1124	22.14	0.401
328.15 K, x1 = 0.4165	790.5	1082.2	21.05	0.387
328.15 K, x1 = 0.4774	785.2	1065.1	20.62	0.382
328.15 K, x1 = 0.5331	780.3	1051.8	20.23	0.377
328.15 K, x1 = 0.6068	773.7	1037.4	19.73	0.37
328.15 K, x1 = 0.7371	762.6	1013.9	18.71	0.357
328.15 K, x1 = 0.8642	750.8	995.44	17.69	0.342
328.15 K, x1 = 1	736.5	985.2	16.62	0.328
